What was measured:
[1] = in vitro; conditions: human, liver microsomes
Description: Half life in human liver microsomes at 0.5 uM in presence of NADPH by LC-MS/MS method

[2] = in vitro; conditions: rat, liver microsomes
Description: Half life in rat liver microsomes at 0.5 uM in presence of NADPH by LC-MS/MS method

[3] = in vitro; conditions: human, MT2 cells
Description: Cytotoxicity against human MT2 cells

[4] = cells; conditions: Human immunodeficiency virus 1, subtype B NL4-3, MT2
[5] = in vivo; conditions: Sprague-Dawley, rat, po, 5 mg/kg
[6] = in vitro; conditions: mouse, liver microsomes
Description: Half life in mouse liver microsomes at 0.5 uM in presence of NADPH by LC-MS/MS method

| Compound | half-life at 0.5 µM [1] | half-life at 0.5 µM [2] | CC50 [3] | IC50 [4] | AUC(0-t) at 6 h [5] | half-life at 0.5 µM [6] |
| --- | --- | --- | --- | --- | --- | --- |
| C=C(C)[C@@H]1CC[C@]2(CNCCN3CCNCC3)CC[C@]3(C)[C@H](CC[C@@H]4[C@@]5(C)CC=C(c6ccc(C(=O)O)cc6)C(C)(C)[C@@H]5CC[C@]43C)[C@@H]12 | > 2 h | 1.43 h | 2300 nM | – | – | – |
| C=C(C)[C@@H]1CC[C@]2(CNCCNC(C)=O)CC[C@]3(C)[C@H](CC[C@@H]4[C@@]5(C)CC=C(c6ccc(C(=O)O)cc6)C(C)(C)[C@@H]5CC[C@]43C)[C@@H]12 | – | – | 6300 nM | 37 nM | – | – |
| C=C(C)[C@@H]1CC[C@]2(CNCCc3ccc(S(N)(=O)=O)cc3)CC[C@]3(C)[C@H](CC[C@@H]4[C@@]5(C)CC=C(c6ccc(C(=O)O)cc6)C(C)(C)[C@@H]5CC[C@]43C)[C@@H]12 | – | – | 2400 nM | 16 nM | 0.288 µM·h | – |
| C=C(C)[C@@H]1CC[C@]2(CNCCCN(C)C)CC[C@]3(C)[C@H](CC[C@@H]4[C@@]5(C)CC=C(c6ccc(C(=O)O)cc6)C(C)(C)[C@@H]5CC[C@]43C)[C@@H]12 | – | – | 4500 nM | 200 nM | 0.01 µM·h | – |
| C=C(C)[C@@H]1CC[C@]2(CNCCN(C(C)C)C(C)C)CC[C@]3(C)[C@H](CC[C@@H]4[C@@]5(C)CC=C(c6ccc(C(=O)O)cc6)C(C)(C)[C@@H]5CC[C@]43C)[C@@H]12 | – | – | 3700 nM | 35 nM | – | – |
| C=C(C)[C@@H]1CC[C@]2(CNCCN(CCO)CCO)CC[C@]3(C)[C@H](CC[C@@H]4[C@@]5(C)CC=C(c6ccc(C(=O)O)cc6)C(C)(C)[C@@H]5CC[C@]43C)[C@@H]12 | – | – | 6800 nM | 8.4 nM | – | – |
| C=C(C)[C@@H]1CC[C@]2(CNCCN3CCN(C)CC3)CC[C@]3(C)[C@H](CC[C@@H]4[C@@]5(C)CC=C(c6ccc(C(=O)O)cc6)C(C)(C)[C@@H]5CC[C@]43C)[C@@H]12 | – | – | 970 nM | 14 nM | – | – |
| C=C(C)[C@@H]1CC[C@]2(CNCCCN(C)c3ccccc3)CC[C@]3(C)[C@H](CC[C@@H]4[C@@]5(C)CC=C(c6ccc(C(=O)O)cc6)C(C)(C)[C@@H]5CC[C@]43C)[C@@H]12 | > 2 h | > 2 h | 11000 nM | 60 nM | 0.962 µM·h | > 2 h |
| C=C(C)[C@@H]1CC[C@]2(CNCCCN3CCCC3=O)CC[C@]3(C)[C@H](CC[C@@H]4[C@@]5(C)CC=C(c6ccc(C(=O)O)cc6)C(C)(C)[C@@H]5CC[C@]43C)[C@@H]12 | – | – | 5800 nM | 9.9 nM | 1.04 µM·h | – |
| C=C(C)[C@@H]1CC[C@]2(CNCCN3CCCCC3)CC[C@]3(C)[C@H](CC[C@@H]4[C@@]5(C)CC=C(c6ccc(C(=O)O)cc6)C(C)(C)[C@@H]5CC[C@]43C)[C@@H]12 | – | – | 4000 nM | 37 nM | – | – |
| C=C(C)[C@@H]1CC[C@]2(CNCCCO)CC[C@]3(C)[C@H](CC[C@@H]4[C@@]5(C)CC=C(c6ccc(C(=O)O)cc6)C(C)(C)[C@@H]5CC[C@]43C)[C@@H]12 | > 2 h | > 2 h | 4600 nM | 55 nM | – | – |
| C=C(C)[C@@H]1CC[C@]2(CNC(=O)CNC)CC[C@]3(C)[C@H](CC[C@@H]4[C@@]5(C)CC=C(c6ccc(C(=O)O)cc6)C(C)(C)[C@@H]5CC[C@]43C)[C@@H]12 | – | – | 16000 nM | 27 nM | 0.54 µM·h | – |
| C=C(C)[C@@H]1CC[C@]2(CNCCN3CCS(=O)(=O)CC3)CC[C@]3(C)[C@H](CC[C@@H]4[C@@]5(C)CC=C(c6ccc(C(=O)O)cc6)C(C)(C)[C@@H]5CC[C@]43C)[C@@H]12 | > 2 h | 1.8 h | 2600 nM | 6 nM | 2.05 µM·h | > 2 h |
| C=C(C)[C@@H]1CC[C@]2(CNCCCN3CCN(C)CC3)CC[C@]3(C)[C@H](CC[C@@H]4[C@@]5(C)CC=C(c6ccc(C(=O)O)cc6)C(C)(C)[C@@H]5CC[C@]43C)[C@@H]12 | > 2 h | > 2 h | 700 nM | 16 nM | – | > 2 h |
| C=C(C)[C@@H]1CC[C@]2(CNCCn3ccnc3)CC[C@]3(C)[C@H](CC[C@@H]4[C@@]5(C)CC=C(c6ccc(C(=O)O)cc6)C(C)(C)[C@@H]5CC[C@]43C)[C@@H]12 | – | – | 12000 nM | 9.3 nM | 0.223 µM·h | – |
| C=C(C)[C@@H]1CC[C@]2(CNCCN(CC)CC)CC[C@]3(C)[C@H](CC[C@@H]4[C@@]5(C)CC=C(c6ccc(C(=O)O)cc6)C(C)(C)[C@@H]5CC[C@]43C)[C@@H]12 | > 2 h | 1.3 h | 20000 nM | 35 nM | – | > 2 h |
| C=C(C)[C@@H]1CC[C@]2(CNCCCN)CC[C@]3(C)[C@H](CC[C@@H]4[C@@]5(C)CC=C(c6ccc(C(=O)O)cc6)C(C)(C)[C@@H]5CC[C@]43C)[C@@H]12 | > 2 h | > 2 h | 120 nM | 40 nM | – | > 2 h |
| C=C(C)[C@@H]1CC[C@]2(CN(CCCN3CCS(=O)(=O)CC3)C3CC3)CC[C@]3(C)[C@H](CC[C@@H]4[C@@]5(C)CC=C(c6ccc(C(=O)O)cc6)C(C)(C)[C@@H]5CC[C@]43C)[C@@H]12 | > 2 h | > 2 h | 7000 nM | 43 nM | – | > 2 h |
| C=C(C)[C@@H]1CC[C@]2(CNCCc3ccccn3)CC[C@]3(C)[C@H](CC[C@@H]4[C@@]5(C)CC=C(c6ccc(C(=O)O)cc6)C(C)(C)[C@@H]5CC[C@]43C)[C@@H]12 | – | – | 7400 nM | – | – | – |
| C=C(C)[C@@H]1CC[C@]2(CNCCNCCO)CC[C@]3(C)[C@H](CC[C@@H]4[C@@]5(C)CC=C(c6ccc(C(=O)O)cc6)C(C)(C)[C@@H]5CC[C@]43C)[C@@H]12 | > 2 h | 1.95 h | 2000 nM | 20 nM | – | – |
| C=C(C)[C@@H]1CC[C@]2(CN(CCN(C)C)C(=O)CCC(=O)O)CC[C@]3(C)[C@H](CC[C@@H]4[C@@]5(C)CC=C(c6ccc(C(=O)O)cc6)C(C)(C)[C@@H]5CC[C@]43C)[C@@H]12 | – | – | 30000 nM | 650 nM | 4.39 µM·h | – |
| C=C(C)[C@@H]1CC[C@]2(CNCCCN3CCCCC3)CC[C@]3(C)[C@H](CC[C@@H]4[C@@]5(C)CC=C(c6ccc(C(=O)O)cc6)C(C)(C)[C@@H]5CC[C@]43C)[C@@H]12 | 1.32 h | 1.37 h | 240 nM | 6.4 nM | – | 1.5 h |
| C=C(C)[C@@H]1CC[C@]2(CNCCCNCCO)CC[C@]3(C)[C@H](CC[C@@H]4[C@@]5(C)CC=C(c6ccc(C(=O)O)cc6)C(C)(C)[C@@H]5CC[C@]43C)[C@@H]12 | > 2 h | > 2 h | 320 nM | 18 nM | – | – |
| C=C(C)[C@@H]1CC[C@]2(C(=O)O)CC[C@]3(C)[C@H](CC[C@@H]4[C@@]5(C)CC=C(c6ccc(C(=O)O)cc6)C(C)(C)[C@@H]5CC[C@]43C)[C@@H]12 | > 2 h | > 2 h | – | > 6000 nM | – | > 2 h |

Reference: ChEMBL document CHEMBL4219213, “The design, synthesis and structure-activity relationships associated with C28 amine-based betulinic acid derivatives as inhibitors of HIV-1 maturation” (Bioorg Med Chem Lett, 2018)
